Counter-ions that a name gives are not always drawn. Starred links: 1 amine or outer side, 2 acyl side, 3 side chain; linkers in the order of their positions; H or OH if unused. Positions of bridges follow the written chain, without caps; N, C: chain ends. Non-standard residues stand in square brackets, D forms with d. Residues, ends and D or L forms follow the SMILES beside them. Chains are numbered I, II in the order given. Actinocin(9to1) = Cc1c2oc3c(C)ccc(C(=O)[*:1])c3nc-2c(C(=O)[*:2])c(N)c1=O; NMeV = CN[C@H](C(=O)O)C(C)C; Sar = CNCC(=O)O
Tests used:
Format in all cases: cell-based, human
PBMCs from CML patients = test: Primary screening of FDA approved drug library, TitreGlo/CellTiter-Glo cell viability, PBMCs from CML patients; conditions: compound 10 uM, PBMCs from CML patients, average over patients, relative to high control (0%) and no-cell low control (100%); for inhibition at 10 µM: Homo sapiens, PBMC, read-out: % Inhibition, CML Average
Procedure: (§1) Whole blood was taken from experimental group patients and control group patients. The collected blood was transferred to EDTA tubes with a 5 mL pipette and a pipette aid and then to each EDTA tubes corresponding 50 ml centrifuge tubes. All the blood from one patient was placed into 1 tube (50 mL) and an equal volume of PBS was added to the 50 mL centrifuge tube. The sample was then mixed by either inverting the tube or pipetting up & down. The blood was transferred into tow 50 mL leucosep tube and centrifuged at room temperature (18-20° C.) for 15 minutes at 800×g with the brake turned off and acceleration at 2/deceleration at zero. After centrifugation, the white cell interface (buffy coat) was removed by pasture pipette and transferred to the new appropriately labelled 50 ml centrifuge tube. 25 mL PBS was added to the white cell interface (buffy coat) and the mix was centrifuged for 10 minutes at room temperature at 400×g with the brake off and acceleration at 4 & deceleration at 2. The supernatant was discarded from the pellet carefully in an appropriate manner. The pellet was washed another time with 20 mL by centrifugation for 5 minutes as above. The pellet was re-suspended in 5 mL and cells were counted using V-Cell. The cells were then either used directly as fresh for screening or frozen in liquid nitrogen in 10% DMSO/RPMPI media until use.
(§2) The assay used for TitreGlo (Promega) to measure cell viability based on the ATP production. […] The assay was developed in a 384-well plate with 2500 cell/well in 50 uL total volume. Alternatively, the assay could be developed in a 96-well plate with 10,000 cells/well. […] Z′ as a statistics factor was calculated as follows:
(§3) Each compound from the ENZO FDA SCREEN-WELL® FDA approved drug library V2 (0.10 μl in 100% DMSO) was transferred to white, 384-well, PS, Cellstar plates (Greiner Bio-One) using the Echo® Liquid Handler (Labcyte Inc.). Each plate contained one column for the High/Low Controls. The Low Control (1% DMSO v/v in column 23, no cells) and the High Control (final 1% DMSO v/v in column 24, with cells) were employed to calculate the Z′ for each assay plate. […] At 24 h post seeding, baseline growth was assessed using a control plate and CellTiter-Glo (CTG) reagent (Promega Corporation). Briefly, 20 μL/well of CTG detection mix was added and plates were read using an EnVision Multimode plate reader (PerkinElmer) after 10 min incubation in the dark. The raw luminescence signal was normalized in ActivityBase XE with outliers in control wells eliminated according to the 3-sigma method to yield percentage of cell viability by using the High Control (HC) containing cells in 1% DMSO v/v (Carl Roth) and the Low Control containing 1% DMSO v/v (Carl Roth). All Medium-Throughput Screening experiments were performed in duplicate for each patient. […] The raw luminescence signal was processed using Graph Pad Prism (Graph Pad Software Inc.) with outliers in control wells eliminated according to the 3-sigma method. The dose-response curves were analyzed using a 4 parameter sigmoidal fit to obtain plausible results in the case non-sigmoidal dose-response curves.
(§4) Each average patient samples were plotted against average of the control samples to identify the positive hits.
Samples from 4 patients were screened against the FDA approved drug library where the Negative Control (High control) contained cells treated with DMSO and the Positive Control (Low control) were based using no cells. The screening was carried out in 96 well plates. The raw luminescence counts were normalized and the % Inhibition was calculated relative to the high control (0% Inhibition) and the low control (100% Inhibition).

PBMCs from CLL patients = test: Primary screening of FDA approved drug library, TitreGlo/CellTiter-Glo cell viability, PBMCs from CLL patients; conditions: compound 10 uM, PBMCs from CLL patients, average over patients, relative to high control (0%) and no-cell low control (100%); for inhibition at 10 µM: Homo sapiens, PBMC, read-out: % Inhibition, CLL Average
Procedure: as §1, §2, §3
(§5) The Screen-Well FDA approved drug library was screened, which contains 780 approved drugs. […] The final DMSO concentration in the assay plate was 0.1% of total volume. […] The average of all four control samples was then calculated and used to determine the positive “hits” in patients' samples.
as §4

PBMCs from AML patients = test: Primary screening of FDA approved drug library, TitreGlo/CellTiter-Glo cell viability, PBMCs from AML patients; conditions: compound 10 uM, PBMCs from AML patients, average over patients, relative to high control (0%) and no-cell low control (100%); for inhibition at 10 µM: Homo sapiens, PBMC, read-out: % Inhibition, AML Average
Procedure: as §1, §2, §3, §5, §4

PBMCs from ALL patients = test: Primary screening of FDA approved drug library, TitreGlo/CellTiter-Glo cell viability, PBMCs from ALL patients; conditions: compound 10 uM, PBMCs from ALL patients, average over patients, relative to high control (0%) and no-cell low control (100%); for inhibition at 10 µM: Homo sapiens, PBMC, read-out: % Inhibition, ALL Average
Procedure: as §1, §2, §3, §5, §4

Molecule	inhibition at 10 µM (PBMCs from CML patients) [%]	inhibition at 10 µM (PBMCs from CLL patients) [%]	inhibition at 10 µM (PBMCs from AML patients) [%]	inhibition at 10 µM (PBMCs from ALL patients) [%]	% Inhibition, CML Average (PBMCs from CML patients) [%]	% Inhibition, CLL Average (PBMCs from CLL patients) [%]	% Inhibition, AML Average (PBMCs from AML patients) [%]	% Inhibition, ALL Average (PBMCs from ALL patients) [%]
CS(=O)(=O)CCNCc1ccc(-c2ccc3ncnc(Nc4ccc(OCc5cccc(F)c5)c(Cl)c4)c3c2)o1 [Lapatinib Ditosylate]	76.6	6.9	-76.1	35.1				
Ivermectin					79.3	66.0	60.2	70.4
Clc1ccc(CCC(Cn2ccnc2)Sc2c(Cl)cccc2Cl)cc1 (stereo not shown) [Butoconazole Nitrate]	58.5	44.1	46.6	40.7				
CO[C@H]1/C=C/O[C@@]2(C)Oc3c(C)c(O)c4c(O)c(c5c(nc6cc(C)ccn65)c4c3C2=O)NC(=O)/C(C)=C\C=C\[C@H](C)[C@H](O)[C@@H](C)[C@@H](O)[C@@H](C)[C@H](OC(C)=O)[C@@H]1C [Rifaximin]	42.3	-60.2	-42.8	-45.4				
CC(CCc1ccc(O)cc1)NCCc1ccc(O)c(O)c1 (stereo not shown) [Dobutamine HCl]	25.3	-5	-10.5	79.6				
Cc1c2oc3c(C)ccc(C(=O)N[C@@H]4C(=O)N[C@H](C(C)C)C(=O)N5CCC[C@H]5C(=O)N(C)CC(=O)N(C)[C@@H](C(C)C)C(=O)O[C@@H]4C)c3nc-2c(C(=O)N[C@@H]2C(=O)N[C@H](C(C)C)C(=O)N3CCC[C@H]3C(=O)N(C)CC(=O)N(C)[C@@H](C(C)C)C(=O)O[C@@H]2C)c(N)c1=O [Dactinomycin (=Actinomycin D), Dactinomycin] (I: T[dV]P[Sar][NMeV] / II: T[dV]P[Sar][NMeV]; ester I:1-I:C, II:1-II:C; linker I:N-II:N via Actinocin(9to1))	24.4	42.9	60.4	66.5				
CSc1ccc2c(c1)N(CCC1CCCCN1C)c1ccccc1S2 (stereo not shown) [Thioridazine HCl]	70.3	-40.9	27	23.1				
NS(=O)(=O)c1cc(C(=O)O)c(NCc2ccco2)cc1Cl [Furosemide]	-38.4	50.3	-39	-31.3				
O=c1[nH]c2ccccc2n1C1CCN(CCCC(c2ccc(F)cc2)c2ccc(F)cc2)CC1 [Pimozide]	69	39.5	42.3	58.8				
CO[C@H]1C[C@@H]2CC[C@@H](C)[C@@](O)(O2)C(=O)C(=O)N2CCCC[C@H]2C(=O)O[C@H]([C@H](C)C[C@@H]2CC[C@@H](OC(=O)C(C)(CO)CO)[C@H](OC)C2)CC(=O)[C@H](C)/C=C(\C)[C@@H](O)[C@@H](OC)C(=O)[C@H](C)C[C@H](C)/C=C/C=C/C=C/1C [Temsirolimus]	7	26.6	1.6	-6.4				
Cc1ncc([N+](=O)[O-])n1CCO [Metronidazole]	-17.3	31	-25.2	-23.9				
Clc1ccc(COC(Cn2ccnc2)c2ccc(Cl)cc2Cl)c(Cl)c1 (stereo not shown) [Miconazole]	69.9	-3.3	38.1	-35.1				
CN(C)CCCN1c2ccccc2CCc2ccccc21 [Imipramine HCl]	13.7		1.9	-6				
COc1cc(NC(C)CCCN)c2ncccc2c1 (stereo not shown) [Primaquine Phosphate]	40.9	16.9	19.8	54.9				
CC(=O)OC[C@H]1O[C@@H]([S-])[C@H](OC(C)=O)[C@@H](OC(C)=O)[C@@H]1OC(C)=O.CCP(CC)CC.[Au+] [Auranofin]					94.9	96.0	96.7	102.9
CN1CCc2cccc3c2[C@H]1Cc1ccc(O)c(O)c1-3 [Apomorphine HCl Hemihydrate]	89.4	27.9	39.5	37.3				
CCN(CC)C(=S)SSC(=S)N(CC)CC [Disulfiram]	92.4	-45.4	64	91.5				

From US10639382B2, “Method for treating leukemia” (National Guard Health Affairs, priority 2017, dated 2020)
